ChEMBL document CHEMBL1201862, “PubChem BioAssay data set” (2004)
Activity calls are given as the source filed them.

Columns and labels:
[1] = target: T1, Corticotropin-releasing factor receptor 2/Corticotropin-releasing factor-binding protein (Homo sapiens, UniProt P24387+Q13324); test: activators of CRF receptor 2 with binding protein – uHTS hits, confirmation (AID 602473); assay type: functional; settings: read-out: EC50_Mean
T1 sequence (Q13324 whole entry): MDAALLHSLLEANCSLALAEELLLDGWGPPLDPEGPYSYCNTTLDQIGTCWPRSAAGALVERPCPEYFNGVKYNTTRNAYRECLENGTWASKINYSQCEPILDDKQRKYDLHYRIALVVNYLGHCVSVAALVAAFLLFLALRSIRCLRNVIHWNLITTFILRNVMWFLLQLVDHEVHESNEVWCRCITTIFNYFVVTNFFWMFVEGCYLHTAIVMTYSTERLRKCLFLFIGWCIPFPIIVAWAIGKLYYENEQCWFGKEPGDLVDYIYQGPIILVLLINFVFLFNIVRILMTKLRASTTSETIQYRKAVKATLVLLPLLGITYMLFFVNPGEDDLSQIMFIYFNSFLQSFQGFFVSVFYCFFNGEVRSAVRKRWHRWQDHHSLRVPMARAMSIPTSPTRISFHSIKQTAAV
T1 sequence (P24387 whole entry): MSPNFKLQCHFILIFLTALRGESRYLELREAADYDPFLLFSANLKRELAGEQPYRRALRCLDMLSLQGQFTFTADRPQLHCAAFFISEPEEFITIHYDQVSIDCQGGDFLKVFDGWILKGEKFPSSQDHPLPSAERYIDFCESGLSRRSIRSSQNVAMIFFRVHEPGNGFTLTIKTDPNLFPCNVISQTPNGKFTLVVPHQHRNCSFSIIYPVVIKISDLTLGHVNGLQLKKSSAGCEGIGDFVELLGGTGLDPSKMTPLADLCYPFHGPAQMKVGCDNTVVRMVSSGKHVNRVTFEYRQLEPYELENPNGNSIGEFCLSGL

[2] = blockers of CRF-binding protein–CRF-R2 complex – cell-based, uHTS hits, 384-well, dose response (AID 651639); assay type: functional, Homo sapiens; settings: read-out: IC50_Mean
[3] = target: T1, Corticotropin-releasing factor receptor 2/Corticotropin-releasing factor-binding protein; test: Dose Response confirmation of uHTS hits for small molecule antagonists of the CRF-binding protein and CRF-R2 receptor complex.; assay type: functional; settings: read-out: IC50_Mean
Steroidogenic factor 1 = Steroidogenic factor 1 (Homo sapiens, UniProt Q13285); test: Counterscreen for inverse agonists of the liver receptor homolog-1 (LRH-1; NR5A2): Luminescence-based cell-based high throughput dose response assay to identify inverse agonists of the Steroidogenic Factor 1 Nuclear Receptor (SF1; NR5A1).; assay type: functional
[4] = target: Nuclear receptor subfamily 5 group A member 2 (Homo sapiens, UniProt O00482); assay type: functional, cell-based;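 also: HEK293T cells transfected with LRH-1 and a StAR promoter luciferase reporter; potency for inhibitors that lower LRH-1 driven reporter light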
[5] = nonselective StAR promoter luciferase inhibitors – cell-based, luminescence, luciferase reporter, counter-screen for LRH-1 inverse agonist project, dose response (AID 651969); assay type: functional
[6] = bead-based luminescence quenchers, dual-tagged ARNT – biochemical, AlphaScreen, cherry-pick, artefact control for ARNT-TACC3 interaction inhibitor project, dose response (AID 651705); assay type: functional;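 also: AlphaScreen bead proximity signal that flags compounds interfering with the detection technology; potency reflects signal decrease which marks the compound as an assay artifact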
[7] = A Cell Based Secondary Assay To Explore Cytotoxicity of Compounds that Sensitize Mycobacterium Tuberculosis to Beta-Lactam Antibiotics.; assay type: functional
[8] = target: T2, Microphthalmia-associated transcription factor (Homo sapiens, UniProt O75030); test: reducers of TRPM1 reporter luminescence, concentration series – cell-based, SK-MEL-5, cherry-picked, set 3, MITF inhibitor project, dose response (AID 493073); assay type: functional;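 also: SK-MEL-5 melanoma cells with luciferase driven by the MITF target TRPM1 promoter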
T2 sequence (O75030 whole entry): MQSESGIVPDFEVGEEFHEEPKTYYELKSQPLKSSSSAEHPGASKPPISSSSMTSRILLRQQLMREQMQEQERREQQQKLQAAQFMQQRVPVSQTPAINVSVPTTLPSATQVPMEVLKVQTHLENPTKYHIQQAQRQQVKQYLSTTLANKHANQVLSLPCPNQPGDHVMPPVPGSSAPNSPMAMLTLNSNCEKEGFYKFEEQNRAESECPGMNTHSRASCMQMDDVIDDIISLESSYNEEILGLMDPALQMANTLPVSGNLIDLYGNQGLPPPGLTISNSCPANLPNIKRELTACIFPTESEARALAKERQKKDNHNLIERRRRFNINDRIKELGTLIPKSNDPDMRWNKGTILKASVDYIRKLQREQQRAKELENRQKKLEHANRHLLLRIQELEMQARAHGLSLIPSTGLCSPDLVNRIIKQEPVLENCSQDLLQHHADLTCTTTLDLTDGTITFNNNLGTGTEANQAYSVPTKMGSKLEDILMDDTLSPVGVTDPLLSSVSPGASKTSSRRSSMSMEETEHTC

[9] = microbe, parasite or virus in culture; assay type: functional; settings: Mycobacterium tuberculosis
HEK293 = test: EBV LMP1 TES2 canonical NF-kB signalling blockers – cell-based, HEK293, luciferase, cherry-pick, dose response (AID 588343); assay type: functional; settings: Homo sapiens
Interleukin-8 [10] = target: T3, Interleukin-8 (Homo sapiens, UniProt P10145); test: Dose Response confirmation of uHTS small molecule hits for cystic fibrosis induced NFkb Inhibitors in a TNFa-induced IL8 counterscreen.; assay type: functional; settings: read-out: IC50_Mean
T3 sequence (P10145 whole entry): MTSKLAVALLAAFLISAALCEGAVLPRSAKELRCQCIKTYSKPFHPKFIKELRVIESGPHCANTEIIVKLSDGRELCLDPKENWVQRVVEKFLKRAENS

Interleukin-8 [11] = target: T3, Interleukin-8; test: Dose Response confirmation of uHTS small molecule hits for cystic fibrosis induced NFkb Inhibitors in a PAF-induced IL8 counterscreen.; assay type: functional; settings: read-out: IC50_Mean
[12] = target: Adenosylmethionine-8-amino-7-oxononanoate aminotransferase (Mycobacterium tuberculosis, UniProt P9WQ81); test: Mycobacterium tuberculosis BioA enzyme inhibitor Measured in Biochemical System Using Plate Reader - 2163-02_Inhibitor_Dose_CherryPick_Activity.; assay type: functional, Mycobacterium tuberculosis UT205
Nonstructural protein 1 = Nonstructural protein 1 (Influenza A virus, UniProt Q194T2); assay type: functional, Influenza A virus (A/California/07/2009(H1N1))
Caspase-3 = target: T4, Caspase-3 (Homo sapiens, UniProt P42574); test: SAR Analysis of small molecule inhibitors of Sentrin-specific proteases (SENPs) using a Caspase-3 Selectivity assay. [Related pubchem assays (depositor defined):AID2540, AID2599, AID434973, AID489001]; assay type: functional
T4 sequence (P42574 whole entry): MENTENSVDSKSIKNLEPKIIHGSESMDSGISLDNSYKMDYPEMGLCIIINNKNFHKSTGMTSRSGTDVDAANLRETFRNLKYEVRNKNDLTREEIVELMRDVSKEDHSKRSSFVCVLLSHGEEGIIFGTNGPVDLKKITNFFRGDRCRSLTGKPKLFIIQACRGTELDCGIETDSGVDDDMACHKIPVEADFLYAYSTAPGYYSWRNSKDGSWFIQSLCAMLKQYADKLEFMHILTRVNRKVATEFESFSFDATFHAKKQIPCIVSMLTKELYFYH

[13] = target: T5, Sentrin-specific protease 8 (Homo sapiens, UniProt Q96LD8); test: inhibition of human SENP8 cleavage activity – biochemical, luminescence, SAR follow-up (AID 504501); assay type: functional
T5 sequence (Q96LD8 whole entry): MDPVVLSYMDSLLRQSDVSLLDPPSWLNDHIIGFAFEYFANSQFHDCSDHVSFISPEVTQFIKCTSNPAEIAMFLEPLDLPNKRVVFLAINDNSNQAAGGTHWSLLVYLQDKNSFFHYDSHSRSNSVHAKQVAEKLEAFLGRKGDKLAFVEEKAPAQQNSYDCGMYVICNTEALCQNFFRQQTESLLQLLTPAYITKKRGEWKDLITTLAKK

[14] = target: T6, Sentrin-specific protease 6 (Homo sapiens, UniProt Q9GZR1); test: SAR Analysis of small molecule inhibitors of Sentrin-specific protease 6 (SENP6) using a Luminescent assay. [Related pubchem assays (depositor defined):AID2582, AID2599]; assay type: functional
T6 sequence (Q9GZR1 whole entry): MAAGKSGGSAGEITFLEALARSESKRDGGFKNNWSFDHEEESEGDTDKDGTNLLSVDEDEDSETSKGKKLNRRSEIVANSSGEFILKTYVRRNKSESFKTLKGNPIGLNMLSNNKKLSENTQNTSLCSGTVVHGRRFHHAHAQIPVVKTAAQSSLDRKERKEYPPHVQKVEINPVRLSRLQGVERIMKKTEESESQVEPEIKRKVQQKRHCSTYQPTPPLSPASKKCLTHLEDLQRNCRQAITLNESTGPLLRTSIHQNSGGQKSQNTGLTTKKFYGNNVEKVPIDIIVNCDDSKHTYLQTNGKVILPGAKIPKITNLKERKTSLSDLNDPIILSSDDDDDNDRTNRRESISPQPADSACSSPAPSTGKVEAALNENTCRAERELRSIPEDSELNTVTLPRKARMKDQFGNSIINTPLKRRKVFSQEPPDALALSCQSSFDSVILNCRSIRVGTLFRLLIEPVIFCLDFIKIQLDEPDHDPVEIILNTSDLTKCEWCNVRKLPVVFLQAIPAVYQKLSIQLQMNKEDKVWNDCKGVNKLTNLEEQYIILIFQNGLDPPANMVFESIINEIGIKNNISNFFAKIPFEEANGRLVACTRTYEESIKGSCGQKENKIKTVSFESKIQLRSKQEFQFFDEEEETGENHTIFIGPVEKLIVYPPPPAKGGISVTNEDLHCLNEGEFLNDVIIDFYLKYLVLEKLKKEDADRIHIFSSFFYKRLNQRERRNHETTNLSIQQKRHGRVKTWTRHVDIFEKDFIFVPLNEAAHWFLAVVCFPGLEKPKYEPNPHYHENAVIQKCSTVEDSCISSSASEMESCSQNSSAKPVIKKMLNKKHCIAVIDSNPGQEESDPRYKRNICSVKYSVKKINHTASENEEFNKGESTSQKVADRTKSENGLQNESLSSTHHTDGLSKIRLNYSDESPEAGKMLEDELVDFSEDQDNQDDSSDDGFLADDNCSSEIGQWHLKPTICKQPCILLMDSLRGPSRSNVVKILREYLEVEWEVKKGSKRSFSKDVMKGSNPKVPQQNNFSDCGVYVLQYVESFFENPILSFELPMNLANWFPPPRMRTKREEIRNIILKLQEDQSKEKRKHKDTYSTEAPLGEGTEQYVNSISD

[15] = target: T7, Methionyl-tRNA synthetase, putative (Trypanosoma brucei brucei, UniProt Q38C91); assay type: functional, Trypanosoma brucei brucei strain 927/4 GUTat10.1;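 also: Read-out by fluorescence polarization, run as a confirmatory high-throughput counterscreen; potency of MetRS inhibitors measured by reduced AMP formation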
T7 sequence (Q38C91 whole entry): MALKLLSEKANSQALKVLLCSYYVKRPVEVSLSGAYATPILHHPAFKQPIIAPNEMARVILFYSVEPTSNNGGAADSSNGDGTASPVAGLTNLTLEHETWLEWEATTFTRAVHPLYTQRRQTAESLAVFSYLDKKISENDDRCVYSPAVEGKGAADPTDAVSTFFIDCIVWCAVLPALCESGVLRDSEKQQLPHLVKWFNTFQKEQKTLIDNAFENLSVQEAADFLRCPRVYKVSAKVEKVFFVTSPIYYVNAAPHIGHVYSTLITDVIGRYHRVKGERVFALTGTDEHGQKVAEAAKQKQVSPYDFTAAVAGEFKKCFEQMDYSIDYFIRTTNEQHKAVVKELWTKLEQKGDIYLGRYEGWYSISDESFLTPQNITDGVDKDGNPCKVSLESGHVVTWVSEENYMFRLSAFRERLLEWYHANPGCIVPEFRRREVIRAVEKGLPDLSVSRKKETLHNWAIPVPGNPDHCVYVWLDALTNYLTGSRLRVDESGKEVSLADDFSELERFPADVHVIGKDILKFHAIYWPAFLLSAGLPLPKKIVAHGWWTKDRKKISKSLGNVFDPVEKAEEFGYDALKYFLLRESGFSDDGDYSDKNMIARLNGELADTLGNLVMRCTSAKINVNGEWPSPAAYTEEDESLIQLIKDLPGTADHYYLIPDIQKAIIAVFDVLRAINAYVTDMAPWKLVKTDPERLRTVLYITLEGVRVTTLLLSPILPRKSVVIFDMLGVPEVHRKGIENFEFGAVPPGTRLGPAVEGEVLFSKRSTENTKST

[16] = Counterscreen for inhibitors of Trypanosoma brucei methionyl tRNA synthetase (MetRS): Luminescence-based cell-based high throughput dose response assay to identify compounds that are cytotoxic to Jurkat human T lymphocyte cells.; assay type: functional

Sequence of Adenosylmethionine-8-amino-7-oxononanoate aminotransferase (P9WQ81 whole entry): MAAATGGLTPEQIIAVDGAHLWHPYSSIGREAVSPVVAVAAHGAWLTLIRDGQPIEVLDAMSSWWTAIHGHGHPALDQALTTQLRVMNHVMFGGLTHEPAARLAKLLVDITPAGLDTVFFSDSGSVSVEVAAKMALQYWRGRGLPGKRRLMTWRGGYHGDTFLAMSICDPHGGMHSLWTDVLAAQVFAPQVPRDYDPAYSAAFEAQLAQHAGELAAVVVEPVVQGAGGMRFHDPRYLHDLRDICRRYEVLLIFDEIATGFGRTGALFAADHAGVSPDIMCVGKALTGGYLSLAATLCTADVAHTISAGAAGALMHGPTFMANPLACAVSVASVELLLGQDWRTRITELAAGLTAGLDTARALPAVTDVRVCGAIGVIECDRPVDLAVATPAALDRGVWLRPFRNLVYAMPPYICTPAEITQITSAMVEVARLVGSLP
Sequence of Nuclear receptor subfamily 5 group A member 2 (O00482 whole entry): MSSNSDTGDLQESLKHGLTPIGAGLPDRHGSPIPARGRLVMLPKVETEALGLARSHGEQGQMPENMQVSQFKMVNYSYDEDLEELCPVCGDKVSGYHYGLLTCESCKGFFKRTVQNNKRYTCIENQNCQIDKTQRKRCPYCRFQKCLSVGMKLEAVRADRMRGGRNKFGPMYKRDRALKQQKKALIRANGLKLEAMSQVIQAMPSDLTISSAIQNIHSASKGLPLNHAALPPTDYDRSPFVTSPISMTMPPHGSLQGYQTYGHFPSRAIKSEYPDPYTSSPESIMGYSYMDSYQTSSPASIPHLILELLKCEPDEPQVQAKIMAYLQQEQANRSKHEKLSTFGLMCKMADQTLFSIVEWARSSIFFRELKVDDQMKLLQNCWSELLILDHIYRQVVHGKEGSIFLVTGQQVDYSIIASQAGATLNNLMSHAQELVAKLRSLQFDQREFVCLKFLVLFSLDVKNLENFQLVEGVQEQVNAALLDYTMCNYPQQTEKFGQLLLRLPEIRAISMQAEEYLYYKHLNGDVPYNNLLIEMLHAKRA
Sequence of Steroidogenic factor 1 (Q13285 whole entry): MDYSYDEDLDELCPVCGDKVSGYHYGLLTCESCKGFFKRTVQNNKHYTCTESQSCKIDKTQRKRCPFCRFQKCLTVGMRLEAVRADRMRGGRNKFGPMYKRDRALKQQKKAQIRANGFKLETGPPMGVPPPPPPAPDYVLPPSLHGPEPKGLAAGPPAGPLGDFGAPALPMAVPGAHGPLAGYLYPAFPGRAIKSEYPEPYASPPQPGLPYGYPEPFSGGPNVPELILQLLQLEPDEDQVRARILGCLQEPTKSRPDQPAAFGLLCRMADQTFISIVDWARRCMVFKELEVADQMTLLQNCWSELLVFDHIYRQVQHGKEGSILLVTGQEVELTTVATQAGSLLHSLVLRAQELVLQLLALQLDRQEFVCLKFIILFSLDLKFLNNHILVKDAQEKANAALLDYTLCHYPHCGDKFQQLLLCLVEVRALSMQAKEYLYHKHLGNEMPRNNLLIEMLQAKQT
Sequence of Nonstructural protein 1 (Q194T2 whole entry): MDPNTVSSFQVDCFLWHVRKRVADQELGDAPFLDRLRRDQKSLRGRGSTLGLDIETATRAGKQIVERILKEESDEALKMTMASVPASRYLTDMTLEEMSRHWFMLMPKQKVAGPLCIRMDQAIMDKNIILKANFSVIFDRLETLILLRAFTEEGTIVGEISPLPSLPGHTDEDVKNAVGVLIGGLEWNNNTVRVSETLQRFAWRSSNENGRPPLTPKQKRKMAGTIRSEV

Compound: Cc1ccc([C@H]2C(C(=O)O)=CC[C@@H](c3ccc(Cl)cc3)N2S(=O)(=O)c2ccc(C)cc2)cc1
- EC50 [1]: 25.4 µM (active)
- IC50 [2]: > 20 µM (inactive)
- IC50 [3]: 19.8 µM (active)

Compound: COC(=O)c1ccc(N2CCCCC2)c(NC(=O)c2ccco2)c1
- IC50 (Steroidogenic factor 1): 3.89 µM (active)
- IC50 [4]: 6.04 µM (active)
- IC50 [5]: 18.7 µM (inactive)

Compound: O=C(Nc1nnc(-c2ccco2)o1)c1ccc(S(=O)(=O)N2CCOCC2)cc1
- AC50 [6]: 117 µM (active)
- CC50 [7]: > 40 µM (active)

Compound: O=C(NC1CCCC(C(F)(F)F)C1)c1ccc([N+](=O)[O-])o1 (stereo not drawn)
- IC50 (Steroidogenic factor 1): 0.772 µM (active)
- AC50 [8]: 11.2 µM (active)
- CC50 [9]: 8.8 µM (active)
- IC50 [4]: 23.5 µM (inactive)
- IC50 [5]: 35.9 µM (inactive)

Compound: c1nc(NCc2ccc3c(c2)OCO3)c2cc(-c3ccoc3)ccc2n1
- AC50 (HEK293): 2.17 µM (active)
- IC50 (Interleukin-8 [10]): > 79 µM (inactive)
- IC50 (Interleukin-8 [11]): 1.66 µM (active)

Compound: Fc1ccc2[nH]c3c(NCCN4CCOCC4)ncnc3c2c1
- AC50 [12]: 14.9 µM (active)

Compound: O=C(CSc1ccc2nnc(-c3ccccn3)n2n1)Nc1nccs1
- IC50 (Nonstructural protein 1): 43.5 µM (active)
- AC50 [6]: 76.4 µM (active)

Compound: CC1=NN(C(=O)c2ccc(Br)cc2)C(O)(C(F)(F)OC(F)(F)F)C1 (stereo not drawn)
- EC50 [1]: 46 µM (active)
- IC50 [2]: > 20 µM (inactive)
- IC50 [3]: 4.84 µM (active)

Compound: COc1ccc(C(=O)Nc2ccc3ccccc3c2)cc1OC
- IC50 (Caspase-3): 14.9 µM (active)
- IC50 [13]: > 99 µM (inactive)
- IC50 [14]: > 99 µM (inactive)

Compound: O=C(Nc1ccc2snnc2c1)N1CCOCC1
- AC50 [12]: 8.02 µM (active)

Compound: Cc1cc(Br)cc(Br)c1OCC(=O)NNC(=O)Nc1ccccc1
- IC50 [15]: 119 µM (inactive)
- IC50 [16]: 83.3 µM (inactive)
